Data on 41 compounds can be found in ChEMBL document CHEMBL5518237, “Design of Novel 2-Phenylquinazolin-4-amines as Selective CYP1B1 Inhibitors for Overcoming Paclitaxel Resistance in A549 Cells” (J Med Chem, 2024).

The structures appear in SMILES notation.

What all share (type): ADME
In data set [1] the target is T1, CYP1B1 (Homo sapiens, UniProt Q16678).
T1 sequence (Q16678 whole entry): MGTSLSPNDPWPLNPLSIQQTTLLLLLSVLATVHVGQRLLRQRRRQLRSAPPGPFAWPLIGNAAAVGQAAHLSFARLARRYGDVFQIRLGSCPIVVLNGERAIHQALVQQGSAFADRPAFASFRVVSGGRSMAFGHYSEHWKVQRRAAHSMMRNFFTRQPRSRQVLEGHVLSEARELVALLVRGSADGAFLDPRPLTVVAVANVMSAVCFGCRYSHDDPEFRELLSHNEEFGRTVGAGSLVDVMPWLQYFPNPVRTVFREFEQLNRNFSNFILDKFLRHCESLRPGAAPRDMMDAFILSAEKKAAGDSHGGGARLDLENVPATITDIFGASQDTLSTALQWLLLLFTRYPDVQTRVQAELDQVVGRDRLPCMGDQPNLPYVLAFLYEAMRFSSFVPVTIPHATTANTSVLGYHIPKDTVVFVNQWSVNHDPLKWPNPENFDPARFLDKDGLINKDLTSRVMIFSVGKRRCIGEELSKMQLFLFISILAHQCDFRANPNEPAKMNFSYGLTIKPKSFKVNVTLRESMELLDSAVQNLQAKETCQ
As to the kind of experiment: Inhibition of human recombinant CYP1B1 using 7-ethoxyresorufin as substrate at 0.01 uM preincubated with enzyme for 5 mins followed by fluorescent substrate and NADPH addition and measured after 35 mins by EROD assay. Conditions: recombinant CYP1B1, probe 7-ethoxyresorufin, time 40 min.

Data set [2] concerns the target T1, CYP1B1. Put plainly: Inhibition of human recombinant CYP1B1 using 7-ethoxyresorufin as substrate at 1 uM preincubated with enzyme for 5 mins followed by fluorescent substrate and NADPH addition and measured after 35 mins by EROD assay. The settings on record: recombinant CYP1B1, probe 7-ethoxyresorufin, time 40 min.
Data set [3] has as its target T2, Cytochrome P450 1B1 (Homo sapiens, UniProt Q16678).
T2 sequence (Q16678 whole entry): T1 sequence (Q16678 whole entry)
Put plainly: Inhibition of human recombinant CYP1B1 using 7-ethoxyresorufin as substrate preincubated with enzyme for 5 mins followed by fluorescent substrate and NADPH addition and measured after 35 mins by EROD assay.

Data set [4] relates to CYP1A2 versus CYP1B1. Put plainly: Selectivity ratio of IC50 for Inhibition of human recombinant CYP1A2 to IC50 for Inhibition of human recombinant CYP1B1. The settings on record: recombinant CYP1A2 and recombinant CYP1B1, read-out: Ratio IC50.
Data set [5] deals with T3, Cytochrome P450 1A1 (Homo sapiens, UniProt P04798).
T3 sequence (P04798 whole entry): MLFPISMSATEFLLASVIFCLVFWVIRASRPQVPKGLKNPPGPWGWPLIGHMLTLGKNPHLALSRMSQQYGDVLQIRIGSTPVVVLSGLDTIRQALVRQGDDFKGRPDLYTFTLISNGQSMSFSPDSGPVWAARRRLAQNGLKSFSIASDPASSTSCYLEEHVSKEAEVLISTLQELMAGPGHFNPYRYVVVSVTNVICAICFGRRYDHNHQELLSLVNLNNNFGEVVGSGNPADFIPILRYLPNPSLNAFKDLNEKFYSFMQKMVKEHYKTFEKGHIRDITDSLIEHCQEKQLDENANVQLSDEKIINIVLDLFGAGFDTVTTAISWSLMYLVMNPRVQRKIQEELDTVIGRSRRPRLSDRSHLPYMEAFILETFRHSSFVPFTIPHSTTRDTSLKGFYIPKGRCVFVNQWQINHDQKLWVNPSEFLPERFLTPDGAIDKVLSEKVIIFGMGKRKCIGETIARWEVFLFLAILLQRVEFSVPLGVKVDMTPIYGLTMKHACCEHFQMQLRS
Put plainly: Inhibition of human recombinant CYP1A1 using 7-ethoxyresorufin as substrate preincubated with enzyme for 5 mins followed by fluorescent substrate and NADPH addition and measured after 15 mins by EROD assay.

Data set [6] deals with T4, Cytochrome P450 1A2 (Homo sapiens, UniProt P05177).
T4 sequence (P05177 whole entry): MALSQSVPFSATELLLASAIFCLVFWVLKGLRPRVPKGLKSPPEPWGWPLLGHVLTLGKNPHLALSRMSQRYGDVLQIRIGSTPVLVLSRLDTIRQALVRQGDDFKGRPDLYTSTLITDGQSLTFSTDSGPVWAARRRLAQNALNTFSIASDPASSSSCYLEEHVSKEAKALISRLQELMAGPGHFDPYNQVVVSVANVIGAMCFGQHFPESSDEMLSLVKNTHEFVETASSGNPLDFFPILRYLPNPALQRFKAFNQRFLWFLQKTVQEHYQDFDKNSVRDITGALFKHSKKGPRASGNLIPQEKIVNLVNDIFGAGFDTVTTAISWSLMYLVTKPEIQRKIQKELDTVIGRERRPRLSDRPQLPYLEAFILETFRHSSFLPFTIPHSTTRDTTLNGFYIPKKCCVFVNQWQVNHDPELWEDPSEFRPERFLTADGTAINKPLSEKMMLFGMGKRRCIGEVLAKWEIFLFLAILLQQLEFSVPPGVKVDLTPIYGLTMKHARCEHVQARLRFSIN
Put plainly: Inhibition of human recombinant CYP1A2 using 7-ethoxyresorufin as substrate preincubated with enzyme for 5 mins followed by fluorescent substrate and NADPH addition and measured after 50 mins by EROD assay.

In data set [7] the test system is CYP1A1 versus CYP1B1. As to the kind of experiment: Selectivity ratio of IC50 for Inhibition of human recombinant CYP1A1 to IC50 for Inhibition of human recombinant CYP1B1. Conditions: recombinant CYP1A1 and recombinant CYP1B1, read-out: Ratio IC50.

What is called inhibition is the relative decrease from the control value, in per cent. On to `C#CCOc1ccc(-c2nc(N)c3ccccc3n2)cc1`, for which the inhibition at 35 min, 0.01 µM in data set [1] stood at 74.4%. Moreover, the inhibition at 35 min, 1 µM in data set [2] was 96%.
As to `Nc1nc(-c2ccc(Cl)nc2)nc2ccccc12`, in data set [1], the inhibition at 35 min, 0.01 µM was determined as 6.96%. Further, in data set [2], the inhibition at 35 min, 1 µM is 68%.
The matching figures for `CC(C)Nc1nc(-c2ccc(I)cc2)nc2ccccc12`: 32.8% and 95.3%.
For `Nc1nc(-c2cccc(C(=O)O)c2)nc2ccccc12`, in that order: 22.4% and 10.2%.
For `Nc1nc(-c2ccccc2)nc2c1ccc1ccccc12`, the inhibition at 35 min, 0.01 µM in data set [1] was 6.15%. Moreover, in data set [2], the inhibition at 35 min, 1 µM worked out at 93.5%.
The matching figures for `Ic1ccc(-c2nc(N3CCCC3)c3ccccc3n2)cc1`: 39.8% and 94.9%.
As for `Ic1ccc(-c2nc(Nc3ccccc3)c3ccccc3n2)cc1`, the inhibition at 35 min, 0.01 µM in data set [1] came out at 7.25%. Also, the inhibition at 35 min, 1 µM in data set [2] was found to be 60.4%.
For `COC(=O)c1ccc(-c2nc(N)c3ccccc3n2)cc1`, in that order: 15.9% and 92.7%.
The matching figures for `Nc1nc(-c2cccc(I)c2)nc2ccccc12`: 66.4% and 96.7%.
As to `O=c1[nH]c(-c2ccc(Br)cc2)nc2ccccc12`, in data set [1], the inhibition at 35 min, 0.01 µM worked out at 69.5%. Moreover, in data set [2], the inhibition at 35 min, 1 µM turned out to be 94.5%.
For `Nc1nc(-c2ccc(Oc3ccc(Cl)cc3Cl)cc2)nc2ccccc12`, in that order: 1.94% and 27.6%.
Broadly, the IC50 is the point on the concentration scale where inhibition reaches its midpoint. As for `Nc1nc(-c2ccc(Br)cc2)nc2c1ccc1ccccc12`, the results for the concentration for half-maximal inhibition (IC50) in data set [3], in data set [5] and in data set [6] were 0.00307 µM, 0.0281 µM and 0.784 µM, respectively. Besides, the inhibition at 35 min, 0.01 µM in data set [1] amounted to 80.6%. Moreover, the selectivity ratio in data set [4] was 256; in data set [7], 9.16. In addition, the inhibition at 35 min, 1 µM in data set [2] turned out to be 95.4%.
Take `COc1ccc(-c2nc(N)c3ccccc3n2)cc1`: the IC50 in data set [3] was 0.00248 µM; in data set [5], 0.248 µM; in data set [6], 5.84 µM. Further, the inhibition at 35 min, 0.01 µM in data set [1] was 84.1%. Further, the selectivity ratio in data set [4] was 2360; in data set [7] it was 99.9. The inhibition at 35 min, 1 µM in data set [2] amounted to 91.8%.
Turning to `Ic1ccc(-c2nc(NCc3ccccc3)c3ccccc3n2)cc1`, in data set [1], the inhibition at 35 min, 0.01 µM is 2%. Moreover, the inhibition at 35 min, 1 µM in data set [2] was 91.2%.
The matching figures for `Nc1nc(-c2ccc(I)cc2)nc2c1ccc1ccccc12`: 63.1% and 88.5%.
For `Nc1nc(-c2cccc(Cl)c2)nc2c1ccc1ccccc12`, in that order: 14% and 94.2%.
The matching figures for `Nc1nc(-c2ccccc2)nc2ccccc12`: -13.5% and 65.5%.
For `Nc1nc(-c2cccc(Cl)c2)nc2ccccc12`, the inhibition at 35 min, 0.01 µM in data set [1] came to 25.8%. Besides, in data set [2], the inhibition at 35 min, 1 µM came to 74.4%.
The matching figures for `Ic1ccc(-c2nc(N3CCCCC3)c3ccccc3n2)cc1`: 13.8% and 91.1%.
The matching figures for `Nc1nc(-c2cccc(Br)c2)nc2ccccc12`: 13.2% and 55.4%.
`Nc1nc(-c2ccc(F)cc2)nc2ccccc12`: in data set [1], the inhibition at 35 min, 0.01 µM came to 3.73%. For the same compound, the inhibition at 35 min, 1 µM in data set [2] worked out at 80.7%.
For `Ic1ccc(-c2nc(N3CCOCC3)c3ccccc3n2)cc1`, in that order: 51.8% and 93.8%.
The matching figures for `OCCNc1nc(-c2ccc(I)cc2)nc2ccccc12`: 68.5% and 96.5%.
For `NCCNc1nc(-c2ccc(I)cc2)nc2ccccc12`, in that order: -6.11% and 39.5%.
On to `CN(C)c1nc(-c2ccc(I)cc2)nc2ccccc12`, for which, in data set [1], the inhibition at 35 min, 0.01 µM was found to be 65.4%. Moreover, the inhibition at 35 min, 1 µM in data set [2] turned out to be 95.5%.
Regarding `COc1cccc(-c2nc(N)c3ccc4ccccc4c3n2)c1`, the inhibition at 35 min, 0.01 µM in data set [1] stood at 3.87%. Also, the inhibition at 35 min, 1 µM in data set [2] was 94.8%.
Consider `CCCNc1nc(-c2ccc(I)cc2)nc2ccccc12`, for which the inhibition at 35 min, 0.01 µM in data set [1] stood at 67.8%. Moreover, the inhibition at 35 min, 1 µM in data set [2] was found to be 94.2%.
The matching figures for `COc1cccc(-c2nc(N)c3ccccc3n2)c1`: 10.1% and 91.7%.
Take `Cc1ccc(-c2nc(N)c3ccc4ccccc4c3n2)cc1`: the inhibition at 35 min, 0.01 µM in data set [1] was -13.1%. Besides, the inhibition at 35 min, 1 µM in data set [2] is 75.3%.
For `COC(=O)c1cccc(-c2nc(N)c3ccccc3n2)c1`, in that order: 28.4% and 1.98%.
The matching figures for `Nc1nc(-c2cccc(F)c2)nc2c1ccc1ccccc12`: 10.5% and 94.5%.
For `Nc1nc(-c2ccc(Cl)cc2)nc2ccccc12`, in that order: 68.4% and 96%.
For `COc1ccc(-c2nc(N)c3ccc4ccccc4c3n2)cc1`, the inhibition at 35 min, 0.01 µM in data set [1] was 44.2%. Moreover, in data set [2], the inhibition at 35 min, 1 µM is 95.2%.
For `Nc1nc(-c2ccc(Cl)cc2)nc2c1ccc1ccccc12`, in that order: 69.4% and 95.4%.
The matching figures for `Nc1nc(-c2ccc(C(=O)O)cc2)nc2ccccc12`: 20.2% and -2.32%.
For `Nc1nc(-c2ccc(F)cc2)nc2c1ccc1ccccc12`, in that order: 11% and 95%.
Turning to `Cc1ccc(-c2nc(N)c3ccccc3n2)cc1`, the values for the half-maximal inhibitory concentration (IC50) in data set [3], in data set [5] and in data set [6] were 0.00169 µM, 0.263 µM and 5.34 µM, respectively. Further, in data set [1], the inhibition at 35 min, 0.01 µM came out at 89.6%. Moreover, the selectivity ratio in data set [4] was determined as 3160; in data set [7] it was 156. Moreover, in data set [2], the inhibition at 35 min, 1 µM worked out at 97.8%.
Consider `CCCCNc1nc(-c2ccc(I)cc2)nc2ccccc12`, for which the inhibition at 35 min, 0.01 µM in data set [1] was found to be 21.8%. Also, the inhibition at 35 min, 1 µM in data set [2] came out at 86.4%.
Consider `Nc1nc(-c2cccc(Br)c2)nc2c1ccc1ccccc12`, for which the inhibition at 35 min, 0.01 µM in data set [1] is -12.8%. Also, in data set [2], the inhibition at 35 min, 1 µM was determined as 93.8%.
For `Nc1nc(-c2cccc(F)c2)nc2ccccc12`, the inhibition at 35 min, 0.01 µM in data set [1] is -1.45%. For the same compound, the inhibition at 35 min, 1 µM in data set [2] stood at 78.9%.
For `Nc1nc(-c2ccc(Br)nc2)nc2ccccc12`, in that order: 12.8% and 73.4%.
